Patent US9527857B2, “HSPC-sparing treatments for RB-positive abnormal cellular proliferation” (G1 Therapeutics, Inc., priority 2013, dated 2016)
“Also recorded” adds a separate entry of the source.

Key:
[1] = tested on: MCF7 (breast adenocarcinoma, Rb-positive); assay: Cellular proliferation assay (CellTiter-Glo), MCF7; type: cell-based
Protocol: The MCF7 cells were seeded in Costar (Tewksbury, Mass.) 3903 96 well tissue culture treated white walled/clear bottom plates. A nine point dose response dilution series from 10 uM to 1 nM was performed and cell viability was determined after six days of compound treatment as indicated using the CellTiter-Glo® luminescent cell viability assay (CTG; Promega, Madison, Wis., United States of America) following the manufacturer's recommendations. Plates were read on a BioTek (Winooski, Vt.) Syngergy2 multi-mode plate reader. The Relative Light Units (RLU) were plotted as a result of variable molar concentration and data was analyzed using Graphpad (LaJolla, Calif.) Prism 5 statistical software to determine the EC50 for each compound.
(§1) Cellular proliferation assays were conducted using the following cancer cell lines: MCF7 (breast adenocarcinoma—Rb-positive), ZR-75-1 (breast ductal carcinoma—Rb-positive), H69 (human small cell lung cancer—Rb-negative) cells, or A2058 (human metastatic melanoma cells—Rb-negative). These cells were seeded in Costar (Tewksbury, Mass.) […] 96 well tissue culture treated white walled/clear bottom plates. Cells were treated with the compounds of Table 1 as nine point dose response dilution series from 10 uM to 1 nM. Cells were exposed to compounds and then cell viability was determined after either four (H69) or six (MCF7, ZR75-1, A2058) days as indicated using the CellTiter-Glo® luminescent cell viability assay (CTG; Promega, Madison, Wis., United States of America) following the manufacturer's recommendations. Plates were read on BioTek (Winooski, Vt.) Syngergy2 multi-mode plate reader. The Relative Light Units (RLU) were plotted as a result of variable molar concentration and data was analyzed using Graphpad (LaJolla, Calif.) Prism 5 statistical software to determine the EC50 for each compound.

[2] = tested on: ZR-75-1 (breast ductal carcinoma, Rb-positive); assay: Cellular proliferation assay (CellTiter-Glo), ZR-75-1; type: cell-based
Protocol: as §1

[3] = Mouse pharmacokinetics (oral gavage / intravenous); type: in vivo, mice; settings: plasma, 30 mg/kg, read-out: F (oral bioavailability)
Protocol: Blood samples were taken at 0, 0.25, 0.5, 1.0, 2.0, 4.0, and 8.0 hours post dosing and the plasma concentrations were determined by HPLC.

[4] = tested on: MMTV-c-neu (Rb-positive) tumors; assay: MMTV-c-neu HER2-driven (Rb-positive) luminal breast cancer mouse model; type: in vivo, mice
Excerpt: A HER2-driven model (Rb-positive) of breast cancer (Muller W J, Sinn E, Pattengale P K, Wallace R, Leder P. Single-step induction of mammary adenocarcinoma in transgenic mice bearing the activated c-neu oncogene. Cell 1988; 54: 105-15), that expresses c-neu (the mouse ortholog of human HER2) driven by the MMTV promoter was used in the following example. This model was chosen because previous studies in murine (Yu Q, Geng Y, Sicinski P. Specific protection against breast cancers by cyclin D1 ablation. Nature 2001; 411: 1017-21; Landis M W, Pawlyk B S, Li T, Sicinski P, Hinds P W. Cyclin D1-dependent kinase activity in murine development and mammary tumorigenesis. Cancer Cell 2006; 9: 13-22; Reddy H K, Mettus R V, Rane S G, Grana X, Litvin J, Reddy E P. Cyclin-dependent kinase 4 expression is essential for neu-induced breast tumorigenesis. Cancer Res 2005; 65: 10174-8; Yu Q, Sicinska E, Geng Y, Ahnstrom M, Zagozdzon A, Kong Y, et al. Requirement for CDK4 kinase function in breast cancer. Cancer Cell 2006; 9: 23-32.) and human HER2-positive breast cancer (An H X, Beckmann M W, Reifenberger G, Bender H G, Niederacher D. Gene amplification and overexpression of CDK4 in sporadic breast carcinomas is associated with high tumor cell proliferation. Am J Pathol 1999; 154: 113-8; Samady L, Dennis J, Budhram-Mahadeo V, Latchman DS. Activation of CDK4 gene expression in human breast cancer cells by the Brn-3b POU family transcription factor. Cancer Biol Ther 2004; 3: 317-23; Takano Y, Takenaka H, Kato Y, Masuda M, Mikami T, Saegusa M, et al. Cyclin D1 overexpression in invasive breast cancers: correlation with cyclin-dependent kinase 4 and oestrogen receptor overexpression, and lack of correlation with mitotic activity.
MMTV-neu mice were generated and observed post-lactation, with tumors observed with a median latency of approximately 25 weeks. Mice were enrolled in therapy studies when tumors reached a standard size (50-60 mm3) that permitted easy serial assessment. […] Tumor volumes were calculated by the formula, Volume=[(width)^2×length]/2. Tumor-bearing mice were euthanized at the indicated times due to predefined morbidity, tumor ulceration, or a tumor size of more than 1.5 cm in diameter.
Tumors were serially assessed weekly using caliper measurements. Therapeutic intervention began once tumors reached 40-64 mm^3. Tumor volume was calculated using the formula […]. All three compounds were administered orally via medicated diets (100 mg/kg/d). Medicated diets were administered for 28 consecutive days and then stopped. RECIST criteria were used to assess objective response rates.

[5] = tested on: tHS68 cells (CDK4/6-dependent, Rb-positive); assay: Cell cycle arrest (propidium iodide flow cytometry), tHS68; type: cell-based; settings: 24 hours
Excerpt: (§2) To test the ability of CDK4/6 inhibitors to induce a clean G1-arrest, a cell based screening method was used consisting of two CDK4/6-dependent cell lines (tHS68 and WM2664; Rb-positive) and one CDK4/6-independent (A2058; Rb-negative) cell line. […] At the conclusion of the experiment, cells were harvested, fixed, and stained with propidium iodide (a DNA intercalator), which fluoresces strongly red (emission maximum 637 nm) when excited by 488 nm light. Samples were run on Dako Cyan flow cytometer and >10,000 events were collected for each sample. Data were analyzed using FlowJo 2.2 software developed by TreeStar, Inc.

[6] = tested on: WM2664 cells (CDK4/6-dependent, Rb-positive); assay: Cell cycle arrest (propidium iodide flow cytometry), WM2664; type: cell-based; settings: 300 nM, 24 hours
Excerpt: as §2

[7] = tested on: Rb phosphorylation at Ser780 and Ser807/811 in tHS68 and WM2664; assay: Rb phosphorylation western blot, CDK4/6-dependent cell lines; type: cell-based; settings: 300 nM; 4, 8, 16, 24 hours
Protocol: (§3) MAPK levels are shown as a control for protein levels. Following treatment, cells were harvested and analyzed for Rb-phosphorylation by western blot analysis.
(§4) The CDK4/6-cyclin D complex is essential for progression from G1 to the S-phase of the DNA cell cycle. This complex phosphorylates the retinoblastoma tumor suppressor protein (Rb). […] Samples were lysed and protein was assayed by western blot analysis. Rb phosphorylation was measured at two sites targeted by the CDK4/6-cyclin D complex, Ser780 and Ser807/811 using species specific antibodies.

[8] = tested on: Rb phosphorylation at Ser780 and Ser807/811 in A2058; assay: Rb phosphorylation western blot, CDK4/6-independent cell line; type: cell-based; settings: 300 nM; 4, 8, 16, 24 hours
Protocol: as §3, §4

## CN1CCN(c2ccc(Nc3ncc4cc5n(c4n3)C3(CCCCC3)CNC5=O)nc2)CC1 [T]
[1]
  activity against MCF-7 cells compared with PD0332991 (FIG. 21): more potent activity against MCF-7 cells than PD0332991
  inhibition of cellular proliferation of MCF-7 cells (FIGS. 21-24): significant inhibition of cellular proliferation
[2]
  activity against ZR75-1 cells compared with PD0332991 (FIG. 25): more potent activity against ZR75-1 cells than PD0332991
  inhibition of cellular proliferation of ZR75-1 cells (FIGS. 25-28): significant inhibition of cellular proliferation
[3]
  bioavailability: 80%
[4]; 100 mg/kg/d in chow, listed as Compound T
  tumor volume during a 28 day course of therapy: marked reduction in tumor volume
[4]; 100 mg/kg/d in chow, listed as compound T
  tumor volume during a 28 day course of therapy: marked decrease in tumor volume
[4]; 100 mg/kg/day medicated diet, 28 days, RECIST criteria
  objective response rate: 100%
[4]; 150 mg/kg/d in chow
  tumor volume during a 28 day course of therapy: marked reduction in tumor volume
[5]; 300 nM, tHS68
  cell cycle distribution after treatment: causes a loss of the S-phase peak
[5]; tHS68 cells, 28% at baseline
  S-phase cells at the highest concentration shown: 6%
[6]
  cell cycle distribution after treatment: causes a loss of the S-phase peak
[7]
  Rb phosphorylation in CDK4/6-dependent cell lines (tHS68, WM2664): blocks Rb phosphorylation in Rb-dependent cell lines by 16 hours post exposure; also recorded: reduced Rb-phosphorylation starting 16 hours after treatment
[8]
  Rb phosphorylation in CDK4/6-independent cells (A2058): no effect
